Laboratory results published in US8124793B2, “Derivatives of ethylene methanedisulfonate as cancer chemotherapeutic agents” (priority 2007, dated 2012).

Legend:
NCI-H522 = assay: NCI screen, growth of human tumor cells: Non-Small Cell Lung NCI-H522; format: cell-based; settings: NCI-H522 (Non-Small Cell Lung), 10^−4 molar
In short: (§1)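 At least 60 data points describe each compound tested by NCI. Cancer type, molar concentration in the screen and percent growth make up the recorded data.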

HCT-116 = assay: NCI screen, growth of human tumor cells: Colon Cancer HCT-116; format: cell-based; settings: HCT-116 (Colon Cancer), 10^−4 molar
In short: as §1

AS49/ATCC = assay: NCI screen, growth of human tumor cells: Non-Small Cell Lung AS49/ATCC; format: cell-based; settings: AS49/ATCC (Non-Small Cell Lung), 10^−4 molar
In short: as §1

OVCAR-3 = assay: NCI screen, growth of human tumor cells: Ovarian Cancer OVCAR-3; format: cell-based; settings: OVCAR-3 (Ovarian Cancer), 10^−4 molar
In short: as §1

RPMI-8226 = assay: NCI screen, growth of human tumor cells: Leukemia RPMI-8226; format: cell-based; settings: RPMI-8226 (Leukemia), 10^−4 molar
In short: as §1

UACC-62 = assay: NCI screen, growth of human tumor cells: Melanoma UACC-62; format: cell-based; settings: UACC-62 (Melanoma), 10^−4 molar
In short: as §1

CAKI-1 = assay: NCI screen, growth of human tumor cells: Renal Cancer CAKI-1; format: cell-based; settings: CAKI-1 (Renal Cancer), 10^−4 molar
In short: as §1

human cancer cells = assay: NCI screen summary over the cancers tested (negative growth of human cancer cells); format: cell-based; settings: 10^−4 M conc.; cancers with negative growth / cancers tested
Protocol: (§2) In the NCI screening process, each compound was tested and described by a minimum of 60 data points. The test data include, but are not limited to the type of cancer, the molar concentration used in the screen, and the percent growth of the cancer. In some cases, NMR and elemental analysis were used for structural assignment.
The derivatives in the tables are grouped using the same category as in the tables 1-6.

DU-145 = assay: NCI screen, growth of human tumor cells: Prostate Cancer DU-145; format: cell-based; settings: DU-145 (Prostate Cancer), 10^−4 molar
In short: as §1

ACHN = assay: NCI screen, growth of human tumor cells: Renal Cancer ACHN; format: cell-based; settings: ACHN (Renal Cancer), 10^−4 molar
In short: as §1

NCI-H460 = assay: NCI screen, growth of human tumor cells: Non-Small Cell Lung NCI-H460; format: cell-based
In short: as §1

MDA-N = assay: NCI screen, growth of human tumor cells: Breast Cancer MDA-N; format: cell-based; settings: 10^−4 molar
Protocol: as §2

CCRF-CEM = assay: NCI screen, growth of human tumor cells: Leukemia CCRF-CEM; format: cell-based; settings: CCRF-CEM (Leukemia), 10^−4 molar
In short: as §1

SN12C = assay: NCI screen, growth of human tumor cells: Renal Cancer SN12C; format: cell-based; settings: SN12C (Renal Cancer), 10^−4 molar
In short: as §1

OVCAR-8 = assay: NCI screen, growth of human tumor cells: Ovarian Cancer OVCAR-8; format: cell-based; settings: OVCAR-8 (Ovarian Cancer), 10^−4 molar
In short: as §1

SK-OV-3 = assay: NCI screen, growth of human tumor cells: Ovarian Cancer SK-OV-3; format: cell-based; settings: SK-OV-3 (Ovarian Cancer), 10^−4 molar
In short: as §1

SF-295 = assay: NCI screen, growth of human tumor cells: CNS Cancer SF-295; format: cell-based; settings: SF-295 (CNS Cancer), 10^−4 molar
In short: as §1

OVCAR-4 = assay: NCI screen, growth of human tumor cells: Ovarian Cancer OVCAR-4; format: cell-based; settings: OVCAR-4 (Ovarian Cancer), 10^−4 molar
In short: as §1

HOP-62 = assay: NCI screen, growth of human tumor cells: Non-Small Cell Lung HOP-62; format: cell-based; settings: HOP-62 (Non-Small Cell Lung), 10^−4 molar
In short: as §1

UO-31 = assay: NCI screen, growth of human tumor cells: Renal Cancer UO-31; format: cell-based; settings: UO-31 (Renal Cancer), 10^−4 molar
In short: as §1

HL-60 (TB) = assay: NCI screen, growth of human tumor cells: Leukemia HL-60 (TB); format: cell-based; settings: HL-60 (TB) (Leukemia), 10^−4 molar
Protocol: as §2

K562 = assay: NCI screen, growth of human tumor cells: Leukemia K562; format: cell-based; settings: K562 (Leukemia), 10^−4 molar
In short: as §1

M14 = assay: NCI screen, growth of human tumor cells: Melanoma M14; format: cell-based; settings: M14 (Melanoma), 10^−4 molar
In short: as §1

MOLT-4 = assay: NCI screen, growth of human tumor cells: Leukemia MOLT-4; format: cell-based; settings: MOLT-4 (Leukemia), 10^−4 molar
In short: as §1

UACC-257 = assay: NCI screen, growth of human tumor cells: Melanoma UACC-257; format: cell-based; settings: UACC-257 (Melanoma), 10^−4 molar
In short: as §1

HS 578T = assay: NCI screen, growth of human tumor cells: Breast Cancer HS 578T; format: cell-based; settings: HS 578T (Breast Cancer), 10^−4 molar
In short: as §1

KM12 = assay: NCI screen, growth of human tumor cells: Colon Cancer KM12; format: cell-based; settings: KM12 (Colon Cancer), 10^−4 molar
In short: as §1

MCF7/ADR-RES = assay: NCI screen, growth of human tumor cells: Breast Cancer MCF7/ADR-RES; format: cell-based; settings: MCF7/ADR-RES (Breast Cancer), 10^−4 molar
In short: as §1

786-0 = assay: NCI screen, growth of human tumor cells: Renal Cancer 786-0; format: cell-based; settings: 786-0 (Renal Cancer), 10^−4 molar
In short: as §1

HT29 = assay: NCI screen, growth of human tumor cells: Colon Cancer HT29; format: cell-based; settings: HT29 (Colon Cancer), 10^−4 molar
In short: as §1

HCT-15 = assay: NCI screen, growth of human tumor cells: Colon Cancer HCT-15; format: cell-based; settings: HCT-15 (Colon Cancer), 10^−4 molar
In short: as §1

SK-MEL-5 = assay: NCI screen, growth of human tumor cells: Melanoma SK-MEL-5; format: cell-based; settings: SK-MEL-5 (Melanoma), 10^−4 molar
In short: as §1

MCF 7 = assay: NCI screen, growth of human tumor cells: Breast Cancer MCF 7; format: cell-based; settings: MCF 7 (Breast Cancer), 10^−4 molar
In short: as §1

IGROVI = assay: NCI screen, growth of human tumor cells: Ovarian Cancer IGROVI; format: cell-based; settings: IGROVI (Ovarian Cancer), 10^−4 molar
In short: as §1

LOXIMVI = assay: NCI screen, growth of human tumor cells: Melanoma LOXIMVI; format: cell-based; settings: LOXIMVI (Melanoma), 10^−4 molar
In short: as §1

SF-268 = assay: NCI screen, growth of human tumor cells: CNS Cancer SF-268; format: cell-based; settings: SF-268 (CNS Cancer), 10^−4 molar
In short: as §1

SNB-75 = assay: NCI screen, growth of human tumor cells: CNS Cancer SNB-75; format: cell-based
In short: as §1

SF-539 = assay: NCI screen, growth of human tumor cells: CNS Cancer SF-539; format: cell-based; settings: SF-539 (CNS Cancer), 10^−4 molar
In short: as §1

RXF-393 = assay: NCI screen, growth of human tumor cells: Renal Cancer RXF-393; format: cell-based; settings: RXF-393 (Renal Cancer), 10^−4 molar
In short: as §1

O=S1(=O)OCCOS(=O)(=O)C1C1c2ccccc2-c2ccccc21 [NSC 686562, ethylene 9-fluorenylmethanedisulfonate]
percent of growth of human tumor cells (NCI-H522): −19%
percent of growth of human tumor cells (HCT-116): 0%
percent of growth of human tumor cells (AS49/ATCC): 30%
percent of growth of human tumor cells (OVCAR-3): 25%
percent of growth of human tumor cells (RPMI-8226): 9%
percent of growth of human tumor cells (UACC-62): 10%
percent of growth of human tumor cells (CAKI-1): −1%
Percentage of cancers showing negative growth cancers tested (human cancer cells): 10^−4 M conc. = 11/38 = 29%
percent of growth of human tumor cells (DU-145): 9%
percent of growth of human tumor cells (ACHN): 9%
% Growth (NCI-H460; NCI-H460, 10^−4 molar): −50%
% Growth (NCI-H460; NCI-H460, 10^−5 molar): 56%
percent of growth of human tumor cells (MDA-N): 17%
percent of growth of human tumor cells (CCRF-CEM): −3%
percent of growth of human tumor cells (SN12C): 28%
percent of growth of human tumor cells (OVCAR-8): 29%
percent of growth of human tumor cells (SK-OV-3): 25%
percent of growth of human tumor cells (SF-295): 22%
percent of growth of human tumor cells (OVCAR-4): −39%
percent of growth of human tumor cells (HOP-62): 5%
percent of growth of human tumor cells (UO-31): −3%
percent of growth of human tumor cells (HL-60 (TB)): −20%
percent of growth of human tumor cells (K562): 16%
percent of growth of human tumor cells (M14): 23%
percent of growth of human tumor cells (MOLT-4): −32%
melting point: 118 to 124 °C
percent of growth of human tumor cells (UACC-257): 28%
percent of growth of human tumor cells (HS 578T): 24%
percent of growth of human tumor cells (KM12): 22%
percent of growth of human tumor cells (MCF7/ADR-RES): −7%
percent of growth of human tumor cells (786-0): 2%
percent of growth of human tumor cells (HT29): 26%
percent of growth of human tumor cells (HCT-15): 15%
percent of growth of human tumor cells (SK-MEL-5): 4%
percent of growth of human tumor cells (MCF 7): 23%
percent of growth of human tumor cells (IGROVI): 16%
percent of growth of human tumor cells (LOXIMVI): −27%
percent of growth of human tumor cells (SF-268): 29%
% Growth (SNB-75; SNB-75, 10^−4 molar): −28%
% Growth (SNB-75; SNB-75, 10^−5 molar): 28%
% Growth (SNB-75; SNB-75, 10^−6 molar): 64%
percent of growth of human tumor cells (SF-539): 10%
percent of growth of human tumor cells (RXF-393): 25%
